Results published in US20070105892A1, “Amidino compounds as cysteine protease inhibitors” (AXYS Pharmaceuticals, Inc., priority 2003, published 2007).

## CCc1noc(C(=O)[C@H](CC)NC(=O)[C@H](CC2(C)CCCC2)NC2=NS(=O)(=O)c3ccccc32)n1 [Example 1]
  melting point: 202 to 204 °C
